Experimental data taken from publication PMC10819430, “Binding Affinity and Mechanism of Six PFAS with Human Serum Albumin: Insights from Multi-Spectroscopy, DFT and Molecular Dynamics Approaches” (Toxics, 2024).
Entries after “also recorded” stand apart in the source; their conditions may differ. Like-named read-outs stand apart in the source and are kept apart here.

Assays:
HSA [1] = biological target: T1, HSA (Homo sapiens, UniProt P02768); experiment: 3D-EEM fluorescence spectra of HSA–PFAS; settings: for 3D-EEM Peak A Position λex/λem / 3D-EEM Peak B Position λex/λem / 3D-EEM Peak A Intensity F / 3D-EEM Peak B Intensity F: HSA 1 × 10^−6, PFAS 1.8 × 10^−5 mol·L^−1; for 3D-EEM Peak A Intensity F: HSA alone 673.66; for 3D-EEM Peak B Intensity F: HSA alone 996.906
T1 construct: HSA (≥96%) and six PFAS were all purchased from Aladdin Chemicals (Shanghai, China); purchased Aladdin Chemicals (Shanghai, China)
T1 sequence (P02768 25-609): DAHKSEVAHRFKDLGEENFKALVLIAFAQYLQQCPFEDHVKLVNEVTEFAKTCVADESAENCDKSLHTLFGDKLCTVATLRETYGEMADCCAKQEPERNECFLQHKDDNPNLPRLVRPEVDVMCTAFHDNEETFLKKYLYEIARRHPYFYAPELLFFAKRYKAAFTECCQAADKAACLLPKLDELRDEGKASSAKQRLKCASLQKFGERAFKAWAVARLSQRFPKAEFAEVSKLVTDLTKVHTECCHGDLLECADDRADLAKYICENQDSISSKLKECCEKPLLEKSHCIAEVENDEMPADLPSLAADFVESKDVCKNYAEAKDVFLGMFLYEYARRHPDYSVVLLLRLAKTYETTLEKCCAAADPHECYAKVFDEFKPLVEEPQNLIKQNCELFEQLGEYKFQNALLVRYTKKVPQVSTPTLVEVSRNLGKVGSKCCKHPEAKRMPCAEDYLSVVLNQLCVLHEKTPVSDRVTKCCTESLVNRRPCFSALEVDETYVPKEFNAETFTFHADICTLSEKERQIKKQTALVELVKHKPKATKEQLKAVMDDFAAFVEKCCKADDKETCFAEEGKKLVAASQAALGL
Experimental: The 3D-EEM spectra were recorded using specific scanning parameters at the scanning rate of 2400 nm·min^−1, an […] with 5 nm increments, and an emission of 280–550 nm with 2 nm increments. The concentrations of PFAS and HSA were set at 18 × 10^−6 mol·L^−1 and 1 × 10^−6 mol·L^−1, respectively.

HSA [2] = biological target: T1, HSA; experiment: Circular dichroism (CD) spectrum, secondary structure of HSA; settings: HSA:PFAS 1:18, 298 K; for HSA secondary structure: β-Sheet: HSA alone 4.9; for HSA secondary structure: β-Turn: HSA alone 16.9; for HSA secondary structure: Random Coil: HSA alone 36.7; for HSA secondary structure: α-Helix: HSA alone 41.6
Source text: CD measurements (190–260 nm) were taken before and after the addition of PFAS to HSA using a J-815 CD spectrometer equipped with a PMT detector (JASCO, Tokyo, Japan). The protein concentration was set at 1 × 10^−6 mol/L, with a fixed HSA-to-PFAS concentration ratio of 1:18. The scanning rate was set to 100 nm/min with 0.5 nm increments, and the photometric mode of HT. Each sample was scanned three times. The blank buffer control was automatically subtracted during the scanning process. All tests were carried out at 298 K. The CONTIN analysis method from the DichroWeb was employed to determine the contents of the protein’s secondary structure.

HSA [3] = biological target: T1, HSA; experiment: Competitive probe experiment (warfarin, ibuprofen, lidocaine); format: binding
Source text: Competitive probe experiments are commonly used to identify specific binding sites in the structure of proteins. Three probe molecules known to bind to distinct binding sites on HSA were selected: warfarin (subdomain IIA), ibuprofen (subdomain IIIA), and lidocaine (subdomain IIB). These probe molecules would compete with PFAS for the same protein sites when binding with HSA. The potential binding sites can be inferred by monitoring and comparing changes in fluorescence intensity when probe molecules are present.

[4] = biological target: T2, Human Serum Albumin (HSA) (Homo sapiens, UniProt P02768); experiment: Fluorescence quenching of HSA by PFAS (Stern–Volmer, double logarithmic and Van't Hoff analysis); format: binding; settings: for quenching of HSA fluorescence intensity: PFAS 1.8 × 10^−5 mol·L^−1, HSA 1 × 10^−6 mol·L^−1, 298 K; for ΔH / ΔS: Van't Hoff, 298–310 K; for HSA fluorescence peak position after PFAS addition (blue shift from 337 nm): as the concentration of PFAS increases; for affinity for HSA: fluorescence quenching experiments; for main interaction force from thermodynamic analysis: signs of ΔH and ΔS
T2 construct: HSA (≥96%) and six PFAS were all purchased from Aladdin Chemicals (Shanghai, China); purchased Aladdin Chemicals (Shanghai, China)
T2 sequence (P02768 25-609): as above
Experimental: Fluorescence quenching experiments greatly benefit studies on the interactions between ligands and proteins. Initially, 3 mL of HSA stock solution was put into a 10 mm square quartz cuvette. Following that, PFAS stock solution was gradually added to achieve various final concentrations, namely 0, 3, 6, 9, 12, 15, 18 × 10^−6 mol·L^−1. By incrementally increasing the molar ratio of PFAS vs. HSA up to 18, their binding characteristics can be better investigated.
A thermostat (TR-01A, Bishui Corp, Beijing, China) was used to precisely control the solution temperature, which was set at 298, 304, and 310 K. This device includes a temperature controller and a metal heating cuvette module in conjunction with a fluorometer. This thermostat has a temperature range of 20–60 °C (293–333 K) and an accuracy of 0.1 °C Celsius. This step is critical for keeping the experimental conditions stable. Following that, the samples were fluorescence-scanned with a fluorometer (Cary Eclipse, Agilent, CA, USA). The excitation wavelength was set at 275 nm to efficiently stimulate tryptophan (Trp) and tyrosine (Tyr) residues. Additional test parameters include an emission of 275–500 nm, scanning rate of 1200 nm/min and PTV voltage of 700 v. Fluorescence quenching experiments were repeated three times, and the average values were taken for further calculation.
Fluorescence internal filtration (IFE) refers to the phenomenon where the fluorescence intensity decreases during fluorescence measurement due to the absorption of excitation or emission light by sample components (small molecules or proteins) in solution [19, 20]. This phenomenon is more obvious in the samples with a high concentration of adsorbent. A fluorescence correction formula was used in this study to correct the IFE effect on the data, as follows: Fcorr=Fobs×10^Aex+Aem/2 where Fcorr and Fobs are corrected and observed fluorescence emission intensities, respectively, Aex and Aem are UV-vis absorbances at the excitation and emission wavelengths.
The quenching constant can be calculated using the Stern–Volmer Equation (3). The results are shown in Table 2 and Figure 1: F0/F=1+Kqτ0=1+KsvQ where F0 and F refer to HSA fluorescence intensities without and with the quencher (PFAS solution); Kq is the biomacromolecule’s quenching rate constant; τ0 is the average fluorescence lifetime of the fluorescent molecule when the quencher PFAS is absent, usually taken as 10^−8 s; [Q] is the PFAS concentration; Ksv is the Stern–Volmer quenching constant; F0/F is the vertical axis; the Stern–Volmer curves of this system are 298, 304, and 310 K.
The double logarithmic formula can be used to calculate the binding constants and binding site numbers of HSA–PFAS complexes: logF0−F/F=logKb+nlogQ where F0 and F are parameters representing the initial fluorescence intensity and the fluorescence intensity after adding PFAS, respectively. The binding characteristics are represented by the binding constant, Kb, and the number of binding sites, n. The slope of the straight line is the number of binding sites, n, and the binding constant Kb is obtained from the exponent of the straight line’s intercept using the double logarithmic graph. Figure A2 and Table 2 show the calculation results.
The enthalpy change (∆H), entropy change (∆S), and free energy change (∆G) calculated from the Van’t Hoff equation [50] can be used to determine the type of interaction. lnKb=−ΔH/RT+ΔS/R ΔG=ΔH−TΔS=−RTlnKb where R represents the ideal gas constant (8.314 J·mol^−1·K^−1).

[5] = human body, cited from earlier work

Row | SMILES | 3D-EEM Peak A Position λex/λem (HSA [1]) | 3D-EEM Peak B Position λex/λem (HSA [1]) | 3D-EEM Peak A Intensity F (HSA [1]) [a.u.] | 3D-EEM Peak B Intensity F (HSA [1]) [a.u.] | HSA secondary structure: β-Sheet (HSA [2]) [%] | HSA secondary structure: β-Turn (HSA [2]) [%] | HSA secondary structure: Random Coil (HSA [2]) [%] | HSA secondary structure: α-Helix (HSA [2]) [%] | φ (rate of decrease in Kb) (HSA [3]; lidocaine probe) [%] | φ (rate of decrease in Kb) (HSA [3]; warfarin probe) [%] | fluorescence quenching mechanism [4] | quenching of HSA fluorescence intensity [4] [%] | KSV (Stern–Volmer quenching constant) ([4]; T = 298 K) | n (number of binding sites) ([4]; T = 298 K) | ΔG ([4]; T = 298 K) [kcal/mol] | Kq (quenching rate constant) ([4]; T = 298 K, τ0 taken as 10^−8 s) | KSV (Stern–Volmer quenching constant) ([4]; T = 304 K) | n (number of binding sites) ([4]; T = 304 K) | ΔG ([4]; T = 304 K) [kcal/mol] | Kq (quenching rate constant) ([4]; T = 304 K, τ0 taken as 10^−8 s) | further results
1 | O=C(O)C(F)(F)C(F)(F)C(F)(F)C(F)(F)C(F)(F)C(F)(F)C(F)(F)C(F)(F)F [PFNA, Perfluorononanoic Acid] | 280/329 | 230/310 | 418.74 | 800.96 | 7.6 | 15.1 | 41.2 | 36.2 | 43.9 | 98.3 | static quenching | 30.6 | 2.52 ± 0.10 × 10^4 L·mol^−1 | 1.51 ± 0.06 | -9.398 | 2.52 ± 0.10 × 10^12 L·mol^−1·s^−1 | 2.35 ± 0.11 × 10^4 L·mol^−1 | 1.18 ± 0.03 | -7.376 | 2.35 ± 0.11 × 10^12 L·mol^−1·s^−1 | reduction of 3D-EEM peak A intensity (HSA [1]; after binding with HSA): 37.8%; reduction of 3D-EEM peak B intensity (HSA [1]; after binding with HSA): 19.7%; φ (rate of decrease in Kb) (HSA [3]; ibuprofen probe): 13.8%; KSV (Stern–Volmer quenching constant) ([4]; T = 310 K): 1.27 ± 0.04 × 10^4 L·mol^−1; n (number of binding sites) ([4]; T = 310 K): 1.10 ± 0.04; ΔG ([4]; T = 310 K): -7.087 kcal/mol; Kq (quenching rate constant) ([4]; T = 310 K, τ0 taken as 10^−8 s): 1.27 ± 0.04 × 10^12 L·mol^−1·s^−1; ΔH [4]: -66.503 ± 1.3 kcal/mol; ΔS [4]: −805.8 ± 13.8 J·mol^−1·K^−1; HSA fluorescence peak position after PFAS addition (blue shift from 337 nm) [4]: 317 nm; affinity for HSA [4]: high affinity; main interaction force from thermodynamic analysis [4]: hydrogen bonds or van der Waals interactions; also recorded: hydrogen bonds or van der Waals forces
2 | O=C(O)C(F)(F)OC(F)(F)C(F)(F)OC(F)(F)C(F)(F)OC(F)(F)F [PFO3DA, Perfluoro-3,6,9-trioxadecanoic Acid] | 280/329 | 230/325 | 525.07 | 886.91 | 5.8 | 17.3 | 40.6 | 36.4 | 11.8 | 95.1 | static quenching | 15.3 | 1.05 ± 0.06 × 10^4 L·mol^−1 | 1.25 ± 0.03 | -7.091 | 1.05 ± 0.06 × 10^12 L·mol^−1·s^−1 | 1.03 ± 0.06 × 10^4 L·mol^−1 | 1.33 ± 0.02 | -6.479 | 1.03 ± 0.06 × 10^12 L·mol^−1·s^−1 | φ (rate of decrease in Kb) (HSA [3]; ibuprofen probe): 25.8%; KSV (Stern–Volmer quenching constant) ([4]; T = 310 K): 0.87 ± 0.04 × 10^4 L·mol^−1; n (number of binding sites) ([4]; T = 310 K): 1.10 ± 0.03; ΔG ([4]; T = 310 K): -6.348 kcal/mol; Kq (quenching rate constant) ([4]; T = 310 K, τ0 taken as 10^−8 s): 0.87 ± 0.04 × 10^12 L·mol^−1·s^−1; ΔH [4]: -25.471 ± 0.937 kcal/mol; ΔS [4]: −259.2 ± 9.4 J·mol^−1·K^−1; affinity for HSA [4]: high affinity; main interaction force from thermodynamic analysis [4]: hydrogen bonds or van der Waals interactions; also recorded: hydrogen bonds or van der Waals forces
3 | O=C(O)C(F)(F)C(F)(F)C(F)(F)C(F)(F)C(F)(F)C(F)(F)C(F)(F)F [PFOA, Perfluorooctanoic Acid] | 280/336 | 230/327 | 476.59 | 812.58 | 6.4 | 15.8 | 40.5 | 37.2 | 8.1 | 96.1 | mixed quenching | 20.1 | 1.39 ± 0.07 × 10^4 L·mol^−1 | 1.26 ± 0.04 | -7.302 | 1.39 ± 0.07 × 10^12 L·mol^−1·s^−1 | 1.46 ± 0.09 × 10^4 L·mol^−1 | 1.31 ± 0.02 | -7.851 | 1.46 ± 0.09 × 10^12 L·mol^−1·s^−1 | Kq (quenching rate constant) ([4]; 298 K): 1.39e+12 L/mol/s; KSV (Stern–Volmer quenching constant) ([4]; T = 310 K): 1.47 ± 0.11 × 10^4 L·mol^−1; n (number of binding sites) ([4]; T = 310 K): 1.47 ± 0.03; ΔG ([4]; T = 310 K): -9.003 kcal/mol; Kq (quenching rate constant) ([4]; T = 310 K, τ0 taken as 10^−8 s): 1.47 ± 0.11 × 10^12 L·mol^−1·s^−1; ΔH [4]: 35.057 ± 1.53 kcal/mol; ΔS [4]: 593.3 ± 22.7 J·mol^−1·K^−1; HSA fluorescence peak position after PFAS addition (blue shift from 337 nm) [4]: 320 nm; affinity for HSA [4]: high affinity; main interaction force from thermodynamic analysis [4]: hydrophobic interactions; average half-life ([5]; study on 19 PFAS): approximately 2.47 years; average half-life [5]: 3.8 years
4 | O=S(=O)(O)C(F)(F)C(F)(F)C(F)(F)C(F)(F)C(F)(F)C(F)(F)C(F)(F)C(F)(F)F [PFOS, Perfluorooctanesulfonic acid] |  |  |  |  |  |  |  |  |  |  |  |  |  |  |  |  |  |  |  |  | average half-life ([5]; study on 19 PFAS): ~4.52 years; average half-life [5]: 5.4 years
